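Five concentrations, 48 hours, 96-well plates. At the GI50, growth is halved.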 The source made the active and inactive calls. No stated cut-off is given here; in the data, active = GI50 up to about 1.1 µM and inactive = higher.
Experiments:
Assay in all cases: growth of human tumour cells (NCI), 48 h
LOX IMVI = system: LOX IMVI
MDA-MB-231 = system: MDA-MB-231
A549 = system: A549
MOLT-4 = system: MOLT-4
Malme-3M = system: Malme-3M
HCC 2998 = system: HCC 2998
UACC-62 = system: UACC-62
KM12 = system: KM12
A498 = system: A498
EKVX = system: EKVX
SN12C = system: SN12C
TK-10 = system: TK-10
SK-MEL-2 = system: SK-MEL-2
NCI-H522 = system: NCI-H522
ACHN = system: ACHN
OVCAR-4 = system: OVCAR-4
MDA-MB-435 = system: MDA-MB-435
HT-29 = system: HT-29
PC-3 = system: PC-3
DU-145 = system: DU-145

Measured: GI50

OCc1c2c(cc3c1CC1(C3)Cc3cc4c(c(CO)c3C1)CCC4)CCC2
inactive: LOX IMVI 15.1 µM | MDA-MB-231 15.2 µM | A549 14.4 µM | MOLT-4 9.95 µM | Malme-3M 15.3 µM | HCC 2998 17.5 µM | UACC-62 16.7 µM | KM12 16.4 µM | A498 16.4 µM | EKVX 14.6 µM | SN12C 16.9 µM | TK-10 19.6 µM | SK-MEL-2 19.8 µM | NCI-H522 13.3 µM | ACHN 10.3 µM | OVCAR-4 10.1 µM | MDA-MB-435 20.6 µM | HT-29 17.1 µM | PC-3 15.3 µM

COc1c(C)c(C/C=C(\C)CCCC(C)CCCC(C)CCCC(C)C)c(OC)c2ccccc12 (configuration not stated)
inactive: LOX IMVI > 100 µM | MDA-MB-231 > 100 µM | A549 > 100 µM | MOLT-4 > 100 µM | HCC 2998 > 100 µM | UACC-62 > 100 µM | KM12 > 100 µM | EKVX > 100 µM | SN12C > 100 µM | TK-10 > 100 µM | SK-MEL-2 > 100 µM | NCI-H522 > 100 µM | DU-145 > 100 µM | ACHN > 100 µM | OVCAR-4 > 100 µM | MDA-MB-435 > 100 µM | HT-29 > 100 µM | PC-3 > 100 µM

Nc1ccc2c(SCCSc3c4ccccc4nc4cc(N)ccc34)c3ccccc3nc2c1
inactive: LOX IMVI > 100 µM | MDA-MB-231 > 100 µM | A549 > 100 µM | MOLT-4 15.7 µM | Malme-3M > 100 µM | UACC-62 > 100 µM | KM12 > 100 µM | EKVX > 100 µM | SN12C > 100 µM | TK-10 > 100 µM | SK-MEL-2 > 100 µM | NCI-H522 > 100 µM | DU-145 > 100 µM | ACHN 55.7 µM | OVCAR-4 > 100 µM | MDA-MB-435 > 100 µM | HT-29 > 100 µM | PC-3 > 100 µM

COC(=O)c1cc(=O)nc2sc3cccc(C)c3n12
inactive: LOX IMVI 14.8 µM | MDA-MB-231 24.8 µM | A549 46.9 µM | MOLT-4 28.6 µM | Malme-3M 23.9 µM | UACC-62 46.2 µM | KM12 > 100 µM | EKVX 29.6 µM | SN12C 40.6 µM | TK-10 > 100 µM | SK-MEL-2 30.3 µM | NCI-H522 23.2 µM | DU-145 > 100 µM | ACHN 20.9 µM | OVCAR-4 > 100 µM | MDA-MB-435 42 µM | HT-29 28.5 µM | PC-3 21 µM

c1ccc(/C(=N/Nc2cnccn2)c2ncccn2)cc1
inactive: MDA-MB-231 68.2 µM | A549 > 100 µM | MOLT-4 28.6 µM | HCC 2998 > 100 µM | UACC-62 88.3 µM | KM12 39 µM | EKVX 18.2 µM | SN12C > 100 µM | SK-MEL-2 > 100 µM | NCI-H522 14.9 µM | DU-145 90.2 µM | ACHN 40.7 µM | OVCAR-4 67.9 µM | MDA-MB-435 > 100 µM | HT-29 27.4 µM | PC-3 > 100 µM

CCOC(=O)C1CCC(=O)N1C(=O)c1ccc(Cl)cc1 (configuration not stated)
inactive: LOX IMVI > 100 µM | MDA-MB-231 > 100 µM | A549 > 100 µM | MOLT-4 > 100 µM | Malme-3M > 100 µM | HCC 2998 > 100 µM | UACC-62 22.3 µM | KM12 > 100 µM | A498 > 100 µM | EKVX > 100 µM | SN12C > 100 µM | NCI-H522 > 100 µM | DU-145 > 100 µM | ACHN > 100 µM | MDA-MB-435 > 100 µM | HT-29 > 100 µM

N#Cc1cc(Sc2ccc(N)c(C#N)c2)ccc1N
inactive: LOX IMVI 15.8 µM | MDA-MB-231 40.7 µM | A549 29.9 µM | MOLT-4 25.4 µM | Malme-3M 2.8 µM | UACC-62 14.8 µM | KM12 8.63 µM | A498 43.8 µM | EKVX 16 µM | SN12C 48.4 µM | TK-10 65.6 µM | SK-MEL-2 30.3 µM | DU-145 24.9 µM | ACHN 31.2 µM | OVCAR-4 20.4 µM | MDA-MB-435 2.55 µM | HT-29 13.6 µM | PC-3 22.8 µM

CC(=O)NNC1=NN(C(C)=O)C2(S1)C(=O)Nc1ccccc12 (configuration not stated)
inactive: LOX IMVI > 100 µM | MDA-MB-231 > 100 µM | MOLT-4 > 100 µM | Malme-3M > 100 µM | HCC 2998 > 100 µM | UACC-62 > 100 µM | KM12 > 100 µM | EKVX > 100 µM | SN12C > 100 µM | TK-10 > 100 µM | SK-MEL-2 > 100 µM | NCI-H522 > 100 µM | DU-145 > 100 µM | ACHN > 100 µM | OVCAR-4 > 100 µM | MDA-MB-435 > 100 µM | HT-29 > 100 µM | PC-3 45 µM

COC(=O)c1c(O)ccc2c1c1c(n2Cc2ccc(OC)cc2)C(=O)c2ccccc2C1
inactive: LOX IMVI 57.7 µM | MDA-MB-231 32.4 µM | A549 45.9 µM | MOLT-4 40.8 µM | Malme-3M > 100 µM | UACC-62 > 100 µM | KM12 63.7 µM | A498 > 100 µM | SN12C 27 µM | TK-10 84.1 µM | SK-MEL-2 62.5 µM | DU-145 > 100 µM | OVCAR-4 30.8 µM | MDA-MB-435 45.7 µM | HT-29 21.7 µM | PC-3 18.5 µM

CCOC(=O)C1=C(Nc2cccc(OC)c2)OCC1=O
inactive: LOX IMVI > 100 µM | MDA-MB-231 > 100 µM | MOLT-4 > 100 µM | HCC 2998 > 100 µM | UACC-62 > 100 µM | KM12 > 100 µM | A498 27.7 µM | EKVX > 100 µM | TK-10 > 100 µM | SK-MEL-2 > 100 µM | DU-145 68.7 µM | ACHN > 100 µM | OVCAR-4 > 100 µM | MDA-MB-435 > 100 µM | HT-29 > 100 µM | PC-3 > 100 µM

CC(NCc1c(O)ccc2c(-c3ccccc3)cc(=O)oc12)C(=O)O (configuration not stated)
inactive: LOX IMVI > 100 µM | MDA-MB-231 > 100 µM | A549 > 100 µM | MOLT-4 > 100 µM | Malme-3M > 100 µM | HCC 2998 > 100 µM | UACC-62 > 100 µM | KM12 > 100 µM | EKVX > 100 µM | SN12C > 100 µM | TK-10 > 100 µM | SK-MEL-2 > 100 µM | NCI-H522 > 100 µM | DU-145 > 100 µM | ACHN > 100 µM | OVCAR-4 > 100 µM | MDA-MB-435 > 100 µM | HT-29 > 100 µM | PC-3 > 100 µM
